Several values for one entry are separate records, joined by “and”; a condition that tells them apart may be missing. Identical values can stand only once.
How the values were obtained:
[1] = biological target: LC3C (Homo sapiens, UniProt Q9BXW4); test: FP assay with Cy5-labelled p62 LIR tracer (protein titration and tracer displacement); type: binding; conditions: for normalized FP signal, p62 LIR tracer displacement: LC3C, listed as AN1; for compound titration LC3C (displacement curve, FP signal): two replicate columns per compound
[2] = biological target: GABARAP (Homo sapiens, UniProt O95166); test: as above; type: binding; conditions: for normalized FP signal, p62 LIR tracer displacement: GABARAP, listed as AN1; for compound titration GABARAP (displacement curve, FP signal): two replicate columns per compound
[3] = biological target: GABARAPL1 (Homo sapiens, UniProt Q9H0R8); test: as above; type: binding; conditions: for normalized FP signal, p62 LIR tracer displacement: GABARAPL1; for compound titration GABARAPL1 (displacement curve, FP signal): two replicate columns per compound; for FP tracer displacement curve signal (compound titration): duplicate values
[4] = system: U2OS cells; test: Cell growth assay (IncuCyte confluence over 72 h); type: cell-based; parameters: key to U2OS cell growth: % of well area covered by cells (confluence); conditions: listed as AN1
Experimental: Cell growth assay: Cell confluence (phase) from RPE1 (hTERT RPE-1, ATCC CLR_4000) or U2OS (ATCC, HTB-96) cell lines were monitored over time with the IncuCyte S3 (Sartiorius, Germany) in 384-well plates in 50 ul DMEM media, supplemented with 10% Fetal Bovine Serum (FBS) 1% penicillin/Streptomycin and incubated 24 h before treatment. Experiment was performed as described in Cano-Franco et al.. […] Cell confluence is represented as % of area covered by cells. Each data point represents the average ratio or confluence obtained from three individual wells of the plate.

[5] = biological target: GABARAPL2 (Homo sapiens, UniProt P60520); test: FP assay with Cy5-labelled p62 LIR tracer (protein titration and tracer displacement); conditions: GABARAPL2
[6] = log10 concentration [M] -3.82391
[7] = log10 concentration [M] -4.1549
[8] = log10 concentration [M] -4.60206
[9] = log10 concentration [M] -5.30103
[10] = log10 concentration [M] -5.69897
[11] = log10 concentration [M] -6.22185
[12] = log10 concentration [M] -6.69897
[13] = log10 concentration [M] -7.30103
[14] = log10 concentration [M] -7.79588
[15] = log10 concentration [M] -8.08092
[16] = log10 concentration [M] -3.82391, listed as AN1
[17] = log10 concentration [M] -4.1549, listed as AN1
[18] = log10 concentration [M] -4.60206, listed as AN1
[19] = log10 concentration [M] -5.69897, listed as AN1
[20] = log10 concentration [M] -6.22185, listed as AN1
[21] = log10 concentration [M] -6.69897, listed as AN1
[22] = log10 concentration [M] -7.30103, listed as AN1
[23] = log10 concentration [M] -7.79588, listed as AN1
[24] = log10 concentration [M] -8.08092, listed as AN1

Chain of LC3C (Q9BXW4 1-126): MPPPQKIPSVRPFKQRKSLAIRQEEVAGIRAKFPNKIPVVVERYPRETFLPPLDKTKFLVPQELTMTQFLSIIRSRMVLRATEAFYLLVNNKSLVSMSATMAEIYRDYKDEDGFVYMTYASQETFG
Chain of GABARAPL1 (Q9H0R8 whole entry): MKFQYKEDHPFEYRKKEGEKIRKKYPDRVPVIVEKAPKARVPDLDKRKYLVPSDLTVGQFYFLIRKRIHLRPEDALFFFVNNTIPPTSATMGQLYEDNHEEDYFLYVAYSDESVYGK
Chain of GABARAPL2 (P60520 whole entry): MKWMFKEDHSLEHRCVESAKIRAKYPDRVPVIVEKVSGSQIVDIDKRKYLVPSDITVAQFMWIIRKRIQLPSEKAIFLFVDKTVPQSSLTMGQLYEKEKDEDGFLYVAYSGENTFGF
Chain of GABARAP (O95166 1-116): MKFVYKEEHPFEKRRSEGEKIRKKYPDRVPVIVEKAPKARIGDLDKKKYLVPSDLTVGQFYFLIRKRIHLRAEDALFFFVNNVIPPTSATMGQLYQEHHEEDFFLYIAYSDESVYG

O=C1Nc2ccc(Br)cc2C1=Cc1cc(O)c(O)c(Br)c1 [compound 1]
normalized FP signal, p62 LIR tracer displacement [1, 6]: 79.6 and 85.8
normalized FP signal, p62 LIR tracer displacement [1, 7]: 89.2 and 87.8
normalized FP signal, p62 LIR tracer displacement [1, 8]: 89.4 and 94.4
normalized FP signal, p62 LIR tracer displacement ([1]; log10 concentration [M] -5): 89.6 and 94
normalized FP signal, p62 LIR tracer displacement [1, 9]: 93 and 97.8
normalized FP signal, p62 LIR tracer displacement [1, 10]: 84.2 and 88.6
normalized FP signal, p62 LIR tracer displacement [1, 11]: 82.6 and 92
normalized FP signal, p62 LIR tracer displacement [1, 12]: 93.4 and 98.2
normalized FP signal, p62 LIR tracer displacement [1, 13]: 96.4
normalized FP signal, p62 LIR tracer displacement [1, 14]: 91.2 and 92.8
normalized FP signal, p62 LIR tracer displacement [1, 15]: 88.2 and 91.8
compound titration LC3C (displacement curve, FP signal) [1, 6]: 79.6 and 85.8
compound titration LC3C (displacement curve, FP signal) [1, 7]: 89.2 and 87.8
compound titration LC3C (displacement curve, FP signal) [1, 8]: 89.4 and 94.4
compound titration LC3C (displacement curve, FP signal) ([1]; log10 concentration [M] -5): 89.6 and 94
compound titration LC3C (displacement curve, FP signal) [1, 9]: 93 and 97.8
compound titration LC3C (displacement curve, FP signal) [1, 10]: 84.2 and 88.6
compound titration LC3C (displacement curve, FP signal) [1, 11]: 82.6 and 92
compound titration LC3C (displacement curve, FP signal) [1, 12]: 93.4 and 98.2
compound titration LC3C (displacement curve, FP signal) [1, 13]: 96.4
compound titration LC3C (displacement curve, FP signal) [1, 14]: 91.2 and 92.8
compound titration LC3C (displacement curve, FP signal) [1, 15]: 88.2 and 91.8
normalized FP signal, p62 LIR tracer displacement [2, 6]: 88.1034 and 91.0345
normalized FP signal, p62 LIR tracer displacement [2, 7]: 88.6207 and 92.2414
normalized FP signal, p62 LIR tracer displacement [2, 8]: 90.1724 and 94.8276
normalized FP signal, p62 LIR tracer displacement ([2]; log10 concentration [M] -5): 93.7931 and 97.069
normalized FP signal, p62 LIR tracer displacement [2, 9]: 96.0345 and 95.3448
normalized FP signal, p62 LIR tracer displacement [2, 10]: 85 and 92.069
normalized FP signal, p62 LIR tracer displacement [2, 11]: 93.4483 and 97.5862
normalized FP signal, p62 LIR tracer displacement [2, 12]: 98.1034 and 94.3103
normalized FP signal, p62 LIR tracer displacement [2, 13]: 97.4138 and 96.5517
normalized FP signal, p62 LIR tracer displacement [2, 14]: 92.4138 and 89.8276
normalized FP signal, p62 LIR tracer displacement [2, 15]: 89.1379 and 97.2414
compound titration GABARAP (displacement curve, FP signal) [2, 6]: 88.1034 and 91.0345
compound titration GABARAP (displacement curve, FP signal) [2, 7]: 88.6207 and 92.2414
compound titration GABARAP (displacement curve, FP signal) [2, 8]: 90.1724 and 94.8276
compound titration GABARAP (displacement curve, FP signal) ([2]; log10 concentration [M] -5): 93.7931 and 97.069
compound titration GABARAP (displacement curve, FP signal) [2, 9]: 96.0345 and 95.3448
compound titration GABARAP (displacement curve, FP signal) [2, 10]: 85 and 92.069
compound titration GABARAP (displacement curve, FP signal) [2, 11]: 93.4483 and 97.5862
compound titration GABARAP (displacement curve, FP signal) [2, 12]: 98.1034 and 94.3103
compound titration GABARAP (displacement curve, FP signal) [2, 13]: 97.4138 and 96.5517
compound titration GABARAP (displacement curve, FP signal) [2, 14]: 92.4138 and 89.8276
compound titration GABARAP (displacement curve, FP signal) [2, 15]: 89.1379 and 97.2414
normalized FP signal, p62 LIR tracer displacement [3, 16]: 89.2857 and 90
normalized FP signal, p62 LIR tracer displacement [3, 17]: 93.2857 and 94.1429
normalized FP signal, p62 LIR tracer displacement [3, 18]: 92.8571 and 97.1429
normalized FP signal, p62 LIR tracer displacement ([3]; log10 concentration [M] -5, listed as AN1): 95.2857 and 96.7143
normalized FP signal, p62 LIR tracer displacement [3, 9]: 97.7143
normalized FP signal, p62 LIR tracer displacement [3, 19]: 89.4286 and 95
normalized FP signal, p62 LIR tracer displacement [3, 20]: 93.8571 and 97.2857
normalized FP signal, p62 LIR tracer displacement [3, 21]: 97.1429 and 99.8571
normalized FP signal, p62 LIR tracer displacement [3, 22]: 96 and 96.1429
normalized FP signal, p62 LIR tracer displacement [3, 23]: 97.7143 and 93.4286
normalized FP signal, p62 LIR tracer displacement [3, 24]: 99
compound titration GABARAPL1 (displacement curve, FP signal) [3, 6]: 89.2857 and 90
compound titration GABARAPL1 (displacement curve, FP signal) [3, 7]: 93.2857 and 94.1429
compound titration GABARAPL1 (displacement curve, FP signal) [3, 8]: 92.8571 and 97.1429
compound titration GABARAPL1 (displacement curve, FP signal) ([3]; log10 concentration [M] -5): 95.2857 and 96.7143
FP tracer displacement curve signal (compound titration) [3, 19]: 89.4286 and 95
FP tracer displacement curve signal (compound titration) [3, 20]: 93.8571 and 97.2857
FP tracer displacement curve signal (compound titration) [3, 21]: 97.1429 and 99.8571
FP tracer displacement curve signal (compound titration) [3, 22]: 96 and 96.1429
FP tracer displacement curve signal (compound titration) [3, 23]: 97.7143 and 93.4286
FP tracer displacement curve signal (compound titration) [3, 24]: 99
U2OS cell growth ([4]; 100 nM, time 12 h): 35.4537 and 32.3571 and 35.5968
U2OS cell growth ([4]; 100 nM, time 14 h): 36.0873 and 39.0366 and 39.8543
U2OS cell growth ([4]; 100 nM, time 16 h): 40.1608 and 39.3939 and 40.4478
U2OS cell growth ([4]; 100 nM, time 18 h): 39.1099 and 37.1872 and 41.4362
U2OS cell growth ([4]; 100 nM, time 20 h): 43.7035 and 39.6959 and 46.4166
U2OS cell growth ([4]; 500 nM, time 10 h): 38.9338 and 41.9757 and 41.002
U2OS cell growth ([4]; 500 nM, time 12 h): 39.0148 and 42.3639 and 41.6671
U2OS cell growth ([4]; 500 nM, time 14 h): 46.8116 and 46.7871 and 49.5823
U2OS cell growth ([4]; 500 nM, time 16 h): 47.3468 and 53.1118 and 48.7734
U2OS cell growth ([4]; 500 nM, time 18 h): 38.8125 and 47.7715 and 46.4243
U2OS cell growth ([4]; 1 uM, time 10 h): 48.4994 and 57.2399 and 59.5515
U2OS cell growth ([4]; 1 uM, time 12 h): 47.4737 and 55.8868 and 54.1029
U2OS cell growth ([4]; 1 uM, time 14 h): 46.9999 and 57.1898 and 59.5195
U2OS cell growth ([4]; 1 uM, time 16 h): 54.858 and 68.5371 and 64.7822
U2OS cell growth ([4]; 1 uM, time 18 h): 48.8637 and 59.8627 and 56.3987
U2OS cell growth ([4]; 1 uM, time 20 h): 55.1556
U2OS cell growth ([4]; 3 uM, time 10 h): 50.7422 and 64.1291 and 54.5819
U2OS cell growth ([4]; 3 uM, time 12 h): 47.9181 and 60.7394 and 55.125
U2OS cell growth ([4]; 3 uM, time 14 h): 49.0342 and 60.5893 and 56.0885
U2OS cell growth ([4]; 3 uM, time 16 h): 57.6695 and 67.0321 and 61.6341
U2OS cell growth ([4]; 3 uM, time 18 h): 48.0442 and 62.2285 and 59.0264
U2OS cell growth ([4]; 3 uM, time 20 h): 51.1291 and 66.3122 and 66.4452
U2OS cell growth ([4]; 5 uM, time 10 h): 55.0487 and 54.3842 and 51.4536
U2OS cell growth ([4]; 5 uM, time 12 h): 54.96 and 58.942 and 53.816
U2OS cell growth ([4]; 5 uM, time 14 h): 49.0714 and 54.2863 and 67.0438
U2OS cell growth ([4]; 5 uM, time 16 h): 60.7907 and 61.6888 and 65.4648
U2OS cell growth ([4]; 5 uM, time 18 h): 57.5124 and 66.5017 and 59.7417
U2OS cell growth ([4]; 5 uM, time 20 h): 63.2102 and 60.2689 and 68.651
U2OS cell growth ([4]; 10 uM, time 10 h): 59.7697 and 44.8684 and 48.7466
U2OS cell growth ([4]; 10 uM, time 12 h): 61.5092 and 47.1657 and 52.5139
U2OS cell growth ([4]; 10 uM, time 14 h): 62.1617 and 46.5884 and 50.2783
U2OS cell growth ([4]; 10 uM, time 16 h): 65.2687 and 51.6571 and 54.5952
U2OS cell growth ([4]; 10 uM, time 18 h): 66.9364 and 52.1914 and 55.4238
U2OS cell growth ([4]; 10 uM, time 20 h): 65.8459 and 51.6884 and 56.9826
normalized FP signal, p62 LIR tracer displacement [5, 16]: 91.2 and 81.6
normalized FP signal, p62 LIR tracer displacement [5, 17]: 91.2 and 92.8
normalized FP signal, p62 LIR tracer displacement [5, 18]: 92.8 and 98.4
normalized FP signal, p62 LIR tracer displacement ([5]; log10 concentration [M] -5): 109.2
normalized FP signal, p62 LIR tracer displacement ([5]; log10 concentration [M] -5.30103, listed as AN1): 91.6 and 94.8
normalized FP signal, p62 LIR tracer displacement [5, 19]: 82.8 and 89.2
normalized FP signal, p62 LIR tracer displacement [5, 11]: 88
normalized FP signal, p62 LIR tracer displacement [5, 20]: 104.4
normalized FP signal, p62 LIR tracer displacement [5, 12]: 89.6
normalized FP signal, p62 LIR tracer displacement [5, 13]: 94
normalized FP signal, p62 LIR tracer displacement [5, 23]: 90.4 and 93.2
normalized FP signal, p62 LIR tracer displacement [5, 15]: 93.6

— paper PMC11589570, “Critical assessment of LC3/GABARAP ligands used for degrader development and ligandability of LC3/GABARAP binding pockets” (Nature Communications, 2024)
